From patent US8530493B2, “Indolopyridines as Eg5 kinesin modulators” (4SC AG, priority 2006, dated 2013)

These compounds were tested on RKO p21 uninduced (proliferating) colon adenocarcinoma cells (assay: Alamar Blue cell viability assay, RKO p21 uninduced (proliferating)). Settings: Homo sapiens, Table B3, anti-proliferative/cytotoxic activity, 72 hours, read-out: −log EC50 RKO p21 uninduced (proliferating) (converted).
Type: cell-based
How it was run: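 RKO p21 or p27 subclones grown without Ponasterone A, i.e. proliferating, exposed 24 h after seeding to semi-log compound dilutions in DMEM/10% FCS (1% DMSO controls) for 72 h at 37° C. Alamar Blue fluorescence (544/590 nm) read relative to untreated cells; EC50 from dose-response curves, given as −log EC50 (mol/l).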

`CCN(CC)CCCN1C(=O)N2[C@H](c3cccc(O)c3)c3[nH]c4cc(F)c(Cl)cc4c3C[C@@]2(C)C1=O` (racemic) [Example 469, (3aSR,10RS)-6-Chloro-2-(3-diethylamino-propyl)-7-fluoro-10-(3-hydroxy-phenyl)-3a-methyl-3a,4,9,10-tetrahydro-2,9,10a-triaza-cyclopenta[b]fluorene-1,3-dione] and `CC(C)CNCCCN1C(=O)N2[C@H](c3cccc(O)c3)c3[nH]c4cc(F)c(Cl)cc4c3C[C@@]2(C)C1=O` (racemic) [Example 459, (3aSR,10RS)-6-Chloro-7-fluoro-10-(3-hydroxy-phenyl)-2-(3-isobutylamino-propyl)-3a-methyl-3a,4,9,10-tetrahydro-2,9,10a-triaza-cyclopenta[b]fluorene-1,3-dione] cannot be ordered by EC50: no more than 39.8 nM for the first, 39.8 to 251 nM for the second.

`C#CCNCCN1C(=O)N2[C@H](c3cccc(O)c3)c3[nH]c4ccc(OC(F)F)cc4c3C[C@@]2(C)C1=O` (racemic) [Example 287, (3aSR,10RS)-6-(1,1-Difluoro-methoxy)-10-(3-hydroxy-phenyl)-3a-methyl-2-(2-prop-2-ynylamino-ethyl)-3a,4,9,10-tetrahydro-2,9,10a-triaza-cyclopenta[b]fluorene-1,3-dione] and `CNCCCN1C(=O)N2[C@H](c3cccc(O)c3)c3[nH]c4ccc(OC(F)F)cc4c3C[C@@]2(C)C1=O` (racemic) [Example 203, (3aSR,10RS)-6-(1,1-Difluoro-methoxy)-10-(3-hydroxy-phenyl)-3a-methyl-2-(3-methylamino-propyl)-3a,4,9,10-tetrahydro-2,9,10a-triaza-cyclopenta[b]fluorene-1,3-dione] fall in the same range of EC50: 39.8 to 251 nM for the first, 39.8 to 251 nM for the second.

`CC(C)(C)NCCN1C(=O)N2[C@H](c3cccc(O)c3)c3[nH]c4cc(F)c(Cl)cc4c3C[C@@]2(C)C1=O` (racemic) [Example 345, (3aSR,10RS)-2-(2-tert-Butylamino-ethyl)-6-chloro-7-fluoro-10-(3-hydroxy-phenyl)-3a-methyl-3a,4,9,10-tetrahydro-2,9,10a-triaza-cyclopenta[b]fluorene-1,3-dione] and `CN1CCN(CCCN2C(=O)N3[C@H](c4cccc(O)c4)c4[nH]c5cc(F)c(Cl)cc5c4C[C@@]3(C)C2=O)CC1` (racemic) [Example 481, (3aSR,10RS)-6-Chloro-7-fluoro-10-(3-hydroxy-phenyl)-3a-methyl-2-[3-(4-methyl-piperazin-1-yl)-propyl]-3a,4,9,10-tetrahydro-2,9,10a-triaza-cyclopenta[b]fluorene-1,3-dione] cannot be ordered by EC50: no more than 39.8 nM for the first, 39.8 to 251 nM for the second.

`COCCNCCCN1C(=O)N2[C@H](c3cccc(O)c3)c3[nH]c4cc(F)c(OC)cc4c3C[C@@]2(C)C1=O` (racemic) [Example 306, (3aSR,10RS)-7-Fluoro-10-(3-hydroxy-phenyl)-6-methoxy-2-[3-(2-methoxy-ethylamino)-propyl]-3a-methyl-3a,4,9,10-tetrahydro-2,9,10a-triaza-cyclopenta[b]fluorene-1,3-dione] and `COc1cc2c3c([nH]c2cc1F)[C@@H](c1cccc(O)c1)N1C(=O)N(CCN2CCCCC2)C(=O)[C@]1(C)C3` (racemic) [Example 263, (3aSR,10RS)-7-Fluoro-10-(3-hydroxy-phenyl)-6-methoxy-3a-methyl-2-(2-piperidin-1-yl-ethyl)-3a,4,9,10-tetrahydro-2,9,10a-triaza-cyclopenta[b]fluorene-1,3-dione] fall in the same range of EC50: 39.8 to 251 nM for the first, 39.8 to 251 nM for the second.

`C[C@@]12Cc3c([nH]c4ccc(Br)cc34)[C@@H](c3cccc(O)c3)N1C(=O)N(CCCN1CC=CCC1)C2=O` (racemic) [Example 232, (3aSR,10RS)-6-Bromo-2-[3-(3,6-dihydro-2H-pyridin-1-yl)-propyl]-10-(3-hydroxy-phenyl)-3a-methyl-3a,4,9,10-tetrahydro-2,9,10a-triaza-cyclopenta[b]fluorene-1,3-dione] and `C[C@@]12Cc3c([nH]c4ccc(Cl)cc34)[C@@H](c3cccc(O)c3)N1C(=O)N(CCCN1CC=CCC1)C2=O` (racemic) [Example 174, (3aSR,10RS)-6-Chloro-2-[3-(3,6-dihydro-2H-pyridin-1-yl)-propyl]-10-(3-hydroxy-phenyl)-3a-methyl-3a,4,9,10-tetrahydro-2,9,10a-triaza-cyclopenta[b]fluorene-1,3-dione] cannot be ordered by EC50: no more than 39.8 nM for the first, no more than 39.8 nM for the second.

`CN(CCO)CCCN1C(=O)N2[C@H](c3cccc(O)c3)c3[nH]c4ccc(OC(F)F)cc4c3C[C@@]2(C)C1=O` (racemic) [Example 453, (3aSR,10RS)-6-(1,1-Difluoro-methoxy)-2-{3-[(2-hydroxy-ethyl)-methyl-amino]-propyl}-10-(3-hydroxy-phenyl)-3a-methyl-3a,4,9,10-tetrahydro-2,9,10a-triaza-cyclopenta[b]fluorene-1,3-dione] and `CCNCCCN1C(=O)N2[C@H](c3cccc(O)c3)c3[nH]c4ccc(OC(F)F)cc4c3C[C@@]2(C)C1=O` (racemic) [Example 204, (3aSR,10RS)-6-(1,1-Difluoro-methoxy)-2-(3-ethylamino-propyl)-10-(3-hydroxy-phenyl)-3a-methyl-3a,4,9,10-tetrahydro-2,9,10a-triaza-cyclopenta[b]fluorene-1,3-dione] cannot be ordered by EC50: no more than 39.8 nM for the first, 39.8 to 251 nM for the second.

`CCOc1ccc2[nH]c3c(c2c1)C[C@@]1(C)C(=O)N(CCNCCO)C(=O)N1[C@@H]3c1cccc(O)c1` (racemic) [Example 159, (3aSR,10RS)-6-Ethoxy-2-[2-(2-hydroxy-ethylamino)-ethyl]-10-(3-hydroxy-phenyl)-3a-methyl-3a,4,9,10-tetrahydro-2,9,10a-triaza-cyclopenta[b]fluorene-1,3-dione] and `C#CCNCCCN1C(=O)N2[C@H](c3cccc(O)c3)c3[nH]c4ccc(OCC)cc4c3C[C@@]2(C)C1=O` (racemic) [Example 225, (3aSR,10RS)-6-Ethoxy-10-(3-hydroxy-phenyl)-3a-methyl-2-(3-prop-2-ynylamino-propyl)-3a,4,9,10-tetrahydro-2,9,10a-triaza-cyclopenta[b]fluorene-1,3-dione] fall in the same range of EC50: 39.8 to 251 nM for the first, 39.8 to 251 nM for the second.

`C=CCN(C)CCCN1C(=O)N2[C@H](c3cccc(O)c3)c3[nH]c4ccc(Cl)cc4c3C[C@@]2(C)C1=O` (racemic) [Example 169, (3aSR,10RS)-2-[3-(Allyl-methyl-amino)-propyl]-6-chloro-10-(3-hydroxy-phenyl)-3a-methyl-3a,4,9,10-tetrahydro-2,9,10a-triaza-cyclopenta[b]fluorene-1,3-dione] and `C[C@@]12Cc3c([nH]c4ccc(Cl)cc34)[C@@H](c3cccc(O)c3)N1C(=O)N(CCCN1CCOCC1)C2=O` (racemic) [Example 171, (3aSR,10RS)-6-Chloro-10-(3-hydroxy-phenyl)-3a-methyl-2-(3-morpholin-4-yl-propyl)-3a,4,9,10-tetrahydro-2,9,10a-triaza-cyclopenta[b]fluorene-1,3-dione] cannot be ordered by EC50: no more than 39.8 nM for the first, no more than 39.8 nM for the second.

`COc1ccc2[nH]c3c(c2c1F)C[C@@]1(C)C(=O)N(CCNCC2CC2)C(=O)N1[C@@H]3c1cccc(O)c1` (racemic) [Example 410, (3aSR,10RS)-2-[2-(Cyclopropylmethyl-amino)-ethyl]-5-fluoro-10-(3-hydroxy-phenyl)-6-methoxy-3a-methyl-3a,4,9,10-tetrahydro-2,9,10a-triaza-cyclopenta[b]fluorene-1,3-dione] gave an EC50 of 39.8 to 251 nM.
